Values quoted from earlier work as cited in patent US5296224A, “Kava-kava extract, process for the production thereof and use thereof” (Dr. Wilmar Schwabe GmbH & Co., priority 1990, dated 1994).

Experiments:
skin = details: Shulgin 1973
[1] = 21° C.
[2] = administered as pure substance; Kretschmer, MMW 4/1970

Row | SMILES | skin-specific secondary effects (skin) | maximum solubility in water [1] [mg/100 ml water] | effective daily dose [2]
1 | COc1ccc(/C=C/C(=O)c2c(O)cc(OC)cc2OC)cc1 [flavokawin A] | skin-specific secondary effects | – | –
2 | COc1cc(O)c(C(=O)/C=C/c2ccccc2)c(OC)c1 [flavokawin B] | skin-specific secondary effects | – | –
3 | COC1=CC(=O)O[C@@H](/C=C/c2ccccc2)C1 [kawain] | – | 2.2 | about 200 mg
